Patent publication US20050004172A1, “Solid state forms of 5-(difluoro-methoxy)-2-((3,4-dimethoxy-2-pyridinyl)-methyl) sulfinyl]-1H-benzimidazole sodium aquo complexes” (Pliva-Istrazivacki Institut d.o.o., priority 2003, published 2005)

Tests used:
[1] = Solid-state stability under normal storage conditions; format: physicochemical; conditions: typically, but not limited to, temperatures of about 20° C. to about 30° C., relative humidity of about 30% to about 60%
[2] = Solid-state form conversion under crushing or compressing; format: physicochemical

Compound	stability under normal storage conditions [1]	conversion into other known solid-state forms of pantoprazole sodium [2]
COc1ccnc(C[S+]([O-])c2nc3ccc(OC(F)F)cc3[nH]2)c1OC (centres unmarked) [Form A4, 5-(difluoromethoxy)-2-[[(3,4-dimethoxy-2-pyridinyl)methyl]sulfinyl]-1H-benzimidazole]	stable	does not convert
COc1ccnc(C[S+]([O-])c2nc3ccc(OC(F)F)cc3[nH]2)c1OC (centres unmarked) [Form A3, 5-(difluoromethoxy)-2-[[(3,4-dimethoxy-2-pyridinyl)methyl]sulfinyl]-1H-benzimidazole]	stable	does not convert
COc1ccnc(C[S+]([O-])c2nc3ccc(OC(F)F)cc3[nH]2)c1OC (centres unmarked) [Form A1, 5-(difluoromethoxy)-2-[[(3,4-dimethoxy-2-pyridinyl)methyl]sulfinyl]-1H-benzimidazole]	stable	does not convert
COc1ccnc(C[S+]([O-])c2nc3ccc(OC(F)F)cc3[nH]2)c1OC (centres unmarked) [Form A2, 5-(difluoromethoxy)-2-[[(3,4-dimethoxy-2-pyridinyl)methyl]sulfinyl]-1H-benzimidazole]	stable	does not convert
